From patent publication US9420769B2, “Chimeric non-human animal carrying human hepatocyte” (PHOENIXBIO CO., LTD., priority 2011, dated 2016)
Structures can show the parent of a compound that is named as a salt.

Key:
[1] = Metabolic studies for nefazodone hydrochloride (metabolite profiles in blood plasma and urine after peroral administration); type: in vivo, mouse
Experimental: Eight (8) mg of free/mL nefazodone hydrochloride suspended in 0.5% methylcellulose (resulting in a dose of […].) was forcibly administered perorally twice in a volume of 5 mL/kg b.w. at each instance to four (two male and two female mice) cyp3a (KO/KO)/uPA(+/+)/SCID(+/+) mice [N4F1] (week 8 after transplantation (11-week-old)) obtained in Example 8 above by transplantation of human hepatocytes.
Immediately after the first peroral administration of nefazodone hydrochloride, the animals were housed in metabolic cages. Urine was sampled at a time 0 to 8 hours after administration and at a time 8 to 24 hours after administration, at room temperature. After the sampling of urine, the 2nd peroral administration of nefazodone hydrochloride was performed. One (1) hour after administration, blood, small intestine, and liver samples were collected. Immediately after blood collection, centrifugation (1000×g, 4° C. for 10 minutes) was performed to prepare blood plasma. Immediately after collection, urine and blood plasma were stored at −80° C. The PXB mice and the SCID(+/+) mice were similarly treated, and thus blood plasma and urine samples were obtained.
Acetonitrile was added to the thus obtained blood plasma and urine, in an amount equivalent thereto, for deproteinization. Centrifugal filtration (Ultrafree-MC centrifugal filtration tube; 0.45 μm, 9500×g, 2 min, 4° C.) was then performed. The thus obtained filtrates were designated as analytical samples.

[2] = MDZ metabolic activity in small intestinal microsomes; type: in vitro ADME, mouse; details: MDZ 50 umol/L, 0.5 mg/mL microsomes, 37° C., 10 minutes
Experimental: (§1) On weeks 10 to 11 after transplantation (14-week-old), each of chimeric mice and non-transplanted cyp3a (KO/KO)/uPA(+/+)/SCID(+/+) mice [N2F1] was dissected and thus the liver, the small intestine, and blood were collected. The collected liver and small intestine were cut into appropriate sizes. The resulting pieces were immersed in 1 mL of RNA Later (Life Technologies Corporation, Cat No. AM7020), stored at 4° C. overnight, and then stored at −80° C. In addition, portions of the liver and the small intestine were embedded in an OCT compound (Tissue-Tek) for the preparation of frozen sections, and then cryopreserved with liquid nitrogen. Microsomes were prepared from the remaining small intestine and liver portions by procedures such as centrifugation. The thus prepared microsomes were stored at −80° C.
(§2) MDZ metabolic activity was determined using microsomes from the liver and the small intestine from each mouse prepared in Example 2 above. In an experiment using hepatic microsomes, MDZ with a final concentration of 50 umol/L was incubated in hepatic microsomes with a final concentration of 0.1 mg/mL at 37° C. for 5 minutes. […] 1′- and 4-hydroxylated metabolites of MDZ were measured using LC-MS/MS.

[3] = MDZ metabolic activity in hepatic microsomes; type: in vitro ADME, mouse; details: cyp3a (KO/KO)/uPA(+/+)/SCID(+/+) chimeric mice [N2F1] compared with PXB mice; MDZ 50 umol/L, 0.1 mg/mL microsomes, 37° C., 5 minutes; 1'- and 4-hydroxylated metabolites
Experimental: as §1, §2

[4] = PXB mice, 10 mg free/kg peroral, 1 hour after 2nd administration
[5] = SCID(+/+) mice, 10 mg free/kg peroral, 1 hour after 2nd administration
[6] = cyp3a (KO/KO)/uPA(+/+)/SCID(+/+) chimeric mice [N4F1], 10 mg free/kg peroral, 1 hour after 2nd administration

| SMILES | metabolites detected in blood plasma [1, 4] | unchanged nefazodone in blood plasma [1, 4] | metabolites detected in urine ([1]; PXB mice, 10 mg free/kg peroral, urine 0 to 24 hours after administration) | metabolites detected in blood plasma [1, 5] | unchanged nefazodone in blood plasma [1, 5] | metabolites detected in urine ([1]; SCID(+/+) mice, 10 mg free/kg peroral, urine 0 to 24 hours after administration) | human-type metabolites detected in blood plasma, in addition to Triazoledione metabolite [1, 6] | unchanged nefazodone in blood plasma [1, 6] | human-type metabolites detected in urine ([1]; cyp3a (KO/KO)/uPA(+/+)/SCID(+/+) chimeric mice [N4F1], 10 mg free/kg peroral, urine 0 to 24 hours after administration) | metabolic profiles ([1]; cyp3a (KO/KO)/uPA(+/+)/SCID(+/+) chimeric mice, unlike PXB mice and SCID(+/+) mice) | MDZ metabolic activity in small intestinal microsomes ([2]; cyp3a (KO/KO)/uPA(+/+)/SCID(+/+) chimeric mice [N2F1] compared with PXB mice) | MDZ metabolic activity in small intestinal microsomes ([2]; cyp3a (KO/KO)/uPA(+/+)/SCID(+/+) chimeric mice [N2F1] compared with non-transplanted cyp3a (KO/KO)/uPA(+/+)/SCID(+/+) mice [N2F1]) | MDZ metabolic activity in hepatic microsomes [3] |
| --- | --- | --- | --- | --- | --- | --- | --- | --- | --- | --- | --- | --- | --- |
| CCc1nn(CCCN2CCN(c3cccc(Cl)c3)CC2)c(=O)n1CCOc1ccccc1 [nefazodone hydrochloride] | Triazoledione metabolite alone was detected | not detected | metabolite C alone was detected | Triazoledione metabolite alone was detected | not detected | metabolite C alone was detected | OH-NEF and p-OH-NEF | detected | mCPP and metabolite D | reflected the human drug-metabolizing system | – | – | – |
| Cc1ncc2n1-c1ccc(Cl)cc1C(c1ccccc1F)=NC2 [MDZ, Midazolam] | – | – | – | – | – | – | – | – | – | – | lower than that of the PXB mice | almost the same as that of the non-transplanted | almost the same |
